Paper PMC9180621, “Preparation of Novel Pyrazolo[4,3-e]tetrazolo[1,5-b][1,2,4]triazine Sulfonamides and Their Experimental and Computational Biological Studies” (International Journal of Molecular Sciences, 2022)

What was measured:
PC-3 cells = test: Dual acridine orange/ethidium bromide (AO/EB) fluorescent staining, apoptosis; type: cell-based, human; conditions: PC-3, 48 h incubation, control 1.5 ± 0.7%; for mean % of apoptotic cells: AO/EB, ± SD; for % of apoptotic cells, both tested concentrations: IC50 and 2xIC50, AO/EB
Experimental: (§1) Data are presented as mean percentage of apoptotic cells (early and late apoptotic) ± SD values. The differences between the experimental samples and vehicle control were evaluated by the ANOVA test followed by Tukey’s test (p < 0.05). Experiments were performed in triplicate. For flow cytometry analysis with Annexin V-FITC staining, the approximate number of analyzed cells was (N = 1 × 10^4), contrasting with the dual acridine orange/ethidium bromide (AO/EB) fluorescent staining (N = 200). Acridine orange/ethidium bromide (AO/EB) staining is used to detect nuclear alterations and the development of apoptotic bodies, which are both indicative of apoptosis. Acridine orange penetrates into living cells, emitting green fluorescence after intercalation into DNA. The second dye, ethidium bromide, emits red fluorescence in cells with an altered cell membrane. The cells are divided into three categories as follows: living cells (green nucleus with red orange cytoplasm); apoptotic (green irregularly nuclei with chromatin condensation or fragmentation); and necrotic cells (uniformly orange-stained cell nuclei). Programmed cell death is measured by counting the number of cells that undergo apoptosis under a fluorescent microscope. BxPC-3 and PC-3 cells were seeded at an appropriate density on 12-well plates (Table 9). […] Following the incubation period, cells were incubated with fluorochromes (AO/EB: 100 µM; 1:1, v/v) for 5 min at 37 °C in the dark. Viable, apoptotic, or necrotic cells were distinguished using this method based on differential uptake of fluorescent DNA-binding dyes (AO/EB) with the structural aspect of chromatin condensation in the stained nucleus. Cells were analyzed using a fluorescence microscope (Olympus BX60 F5 Olympus Optical Co., Ltd., Nagano, Japan) at 360 nm. The results were obtained from three independent experiments.

BxPC-3 cells [1] = test: as above; type: cell-based, human; conditions: for increase in the apoptotic cell fraction: BxPC-3, both tested concentrations (IC50, 2xIC50), 24 and 48 h incubation
Experimental: as §1

BxPC-3 cells [2] = test: MTT assay, cell viability; type: cell-based; conditions: Homo sapiens, BxPC-3, 72 h incubation, ± SD
Experimental: (§2) A statistical program (Graphpad Prism 7) was used to analyze obtained data (MTT test). The dose–response analysis was performed to estimate the inhibitory concentration (IC50) of the tested compounds. The IC50 value is defined as a concentration of the tested compound that leads to a reduction in cell pool viability by 50% compared to the negative control (accepted as 100%). % cell viability=Absorbance value of treated cells−Absorbance value of blank/Absorbance value of untreated cells−Absorbance value of blank×100%
(§3) To estimate cell viability following 72 h incubation with the tested MM-compounds (MM134, MM136, MM137, and MM139), the MTT test was used according to the PN-EN ISO 10993-5. It is a quantitative method based on the tetrazolium yellow dye MTT [3(4,5-dimethyl-2-thiazolyl)-2,5-diphenyl-2H-tetrazolium bromide], which is converted by living cells to a purple product, formazan, the concentration of which was measured colorimetrically. The MTT assay was performed according to the procedure described by Mosmann with modifications. At a density of approximately 8 × 10^3 cells per 100 µL/well, 96-well plates were seeded. Following the given incubation period in controlled conditions (37 °C; 5% CO2), cells were exposed to different concentrations of tested compounds in DMSO (range 0.05–3 µM) in a volume of 100 µL medium per well. Final solvent concentration of DMSO was < 0.5% v/v. The experimental design included vehicle controls and blanks (wells without cells).
(§4) After 72 h of incubation of cells with tested MM-compounds, 20 µL of MTT tetrazolium salt (5 mg/mL in PBS) was added to each well, and plates were incubated once again in a humidified atmosphere for 3 h (37 °C; 5% CO2). Following the incubation time, the solutions were removed and 100 µL of DMSO was added to dissolve the formazan complexes. Subsequently, a spectrophotometer (microplate reader Power Wave XS BioTek Instruments, Inc., Winooski, VT, USA) reading was performed at 570 nm. The experiments were performed in duplicates.

WI-38 cells = test: MTT assay, cell viability; type: cell-based; conditions: WI-38 normal human fibroblasts, 72 h incubation, ± SD
Experimental: as §2, §3, §4

L929 cells = test: MTT assay, cell viability; type: cell-based; conditions: L929 normal mouse fibroblasts, 72 h incubation, ± SD
Experimental: as §2, §3, §4

[3] = system: cancer cell lines (BxPC-3, HCT-116, PC-3); test: MTT assay, cancer cell lines together; type: cell-based; conditions: Homo sapiens; range over BxPC-3, HCT-116, PC-3; 72 h MTT; read-out: IC50 values in cancer cells
Experimental: as §2
To estimate cell viability following 72 h incubation with the tested MM-compounds (MM134, MM136, MM137, and MM139), the MTT test was used according to the PN-EN ISO 10993-5. It is a quantitative method based on the tetrazolium yellow dye MTT [3(4,5-dimethyl-2-thiazolyl)-2,5-diphenyl-2H-tetrazolium bromide], which is converted by living cells to a purple product, formazan, the concentration of which was measured colorimetrically. […]
as §4, with “Following the incubation time, the solutions were removed and 100 µL of DMSO was added to dissolve the formazan complexes.” left out, “The experiments were performed in duplicates.” left out

HCT-116 cells = test: MTT assay, cell viability; type: cell-based; conditions: Homo sapiens, HCT-116, 72 h incubation, ± SD
Experimental: as §2, §3, §4

Row | IC50 (BxPC-3 cells [2]) [nM] | IC50 [3] [nM] | IC50 (HCT-116 cells) [nM] | Structure (SMILES) | mean % of apoptotic cells (PC-3 cells; 2xIC50 concentration) [%] | mean % of apoptotic cells (PC-3 cells; IC50 concentration) [%] | increase in the apoptotic cell fraction (BxPC-3 cells [1]) | IC50 (WI-38 cells) [nM] | IC50 (L929 cells) [nM] | % of apoptotic cells, both tested concentrations (PC-3 cells) | increase in apoptotic fraction (BxPC-3 cells [1]; BxPC-3, IC50 concentration, 24 h incubation)
1 | 320 ± 100 | – | – | Cc1nn(-c2ccc(S(=O)(=O)NCCN3CCOCC3)cc2)c2nn3nnnc3nc12 [MM134] | 11 ± 1.41 | 8.5 ± 0.7 | statistically significant increase | 650 ± 70 | 580 ± 5 | – | –
2 | 160 ± 40 | 110 to 160 | 140 ± 20 | Cc1nn(-c2ccc(S(=O)(=O)N3CCN(C)CC3)cc2)c2nn3nnnc3nc12 [MM137] | 24 ± 1.41 | 15 ± 2.82 | – | 270 ± 40 | 180 ± 0.8 | statistically significant increase | did not induce a significant increase
3 | 330 ± 140 | – | 350 ± 50 | Cc1nn(-c2ccc(S(=O)(=O)N3CCCCC3)cc2)c2nn3nnnc3nc12 [MM139] | 12.5 ± 0.7 | 13.5 ± 3.53 | statistically significant increase | 540 ± 60 | 260 ± 20 | statistically significant increase | –
